PubChem BioAssay AID1918991 (Molecular Pharmacology Branch, DTP, NCI, 2023)
Values joined by “and” are separate entries in the source; they are usually repeats but may differ in a detail not shown here. Equal entries are not always repeated.

Test system: 186277-243-T-J2-PDC complex spheroid growth
Test: Anticancer human tumor 186277-243-T-J2-PDC patient-derived colon adenocarcinoma cell line growth inhibition [AhR]
Settings: for viability, T/C: stronger effect = lower value
Method in brief: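 Complex tumor spheroids co-cultured with HUVEC and human MSC stroma; AhR antagonists tested in combination with standard-of-care and investigational agents. Top concentration at or near clinical Cmax (else 10 microM), half-log dilutions; growth expressed as percent test/control.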

[1] = curve of first compound, second compound 0.1 µM
[2] = curve of first compound, second compound 0.316 µM
[3] = curve of first compound, second compound 1 µM
[4] = curve of first compound, second compound 3.16 µM
[5] = curve of first compound, second compound 10 µM
[6] = second compound 0.1 µM, first compound 0.0316 µM
[7] = second compound 0.1 µM, first compound 0.1 µM
[8] = second compound 0.1 µM, first compound 0.316 µM
[9] = second compound 0.1 µM, first compound 1 µM
[10] = second compound 0.316 µM, first compound 0.0316 µM
[11] = second compound 0.316 µM, first compound 0.1 µM
[12] = second compound 0.316 µM, first compound 0.316 µM
[13] = second compound 0.316 µM, first compound 1 µM
[14] = second compound 1 µM, first compound 0.0316 µM
[15] = second compound 1 µM, first compound 0.1 µM
[16] = second compound 1 µM, first compound 0.316 µM
[17] = second compound 1 µM, first compound 1 µM
[18] = second compound 3.16 µM, first compound 0.0316 µM
[19] = second compound 3.16 µM, first compound 0.1 µM
[20] = second compound 3.16 µM, first compound 0.316 µM
[21] = second compound 3.16 µM, first compound 1 µM
[22] = second compound 10 µM, first compound 0.0316 µM
[23] = second compound 10 µM, first compound 0.1 µM
[24] = second compound 10 µM, first compound 0.316 µM
[25] = second compound 10 µM, first compound 1 µM
[26] = second compound 0.1 µM, first compound 3.16 µM
[27] = second compound 0.1 µM, first compound 10 µM
[28] = second compound 0.316 µM, first compound 3.16 µM
[29] = second compound 0.316 µM, first compound 10 µM
[30] = second compound 1 µM, first compound 3.16 µM
[31] = second compound 1 µM, first compound 10 µM
[32] = second compound 3.16 µM, first compound 3.16 µM
[33] = second compound 3.16 µM, first compound 10 µM
[34] = second compound 10 µM, first compound 3.16 µM
[35] = second compound 10 µM, first compound 10 µM
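Also: spheroids exposed to compounds for seven days before the viability read.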
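For viability, T/C in this document: luminescent signal used as a stand-in for viable cell amount; 100% = DMSO vehicle control wells.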

CC1COCCN1c1cc(-c2ccnn2C)c2ccnc(-c3ccn[nH]3)c2n1 (centres undefined) + Cc1ccccc1N=Nc1ccc(NC(=O)c2ccnn2C)c(C)c1
IC50 [1]: 81.8 nM
IC50 [2]: 84.5 nM
IC50 [3]: 88.8 nM
IC50 [4]: 75.2 nM
IC50 [5]: 63.6 nM
viability, T/C (second compound 0.1 µM, first compound 0.00316 µM): 99.9%
viability, T/C (second compound 0.1 µM, first compound 0.01 µM): 105%
viability, T/C [6]: 96.7%
viability, T/C [7]: 40.1%
viability, T/C [8]: 10.2%
viability, T/C [9]: 8.07%
viability, T/C (second compound 0.316 µM, first compound 0.00316 µM): 97.5%
viability, T/C (second compound 0.316 µM, first compound 0.01 µM): 102%
viability, T/C [10]: 93.9%
viability, T/C [11]: 42.4%
viability, T/C [12]: 9.54%
viability, T/C [13]: 7.22%
viability, T/C (second compound 1 µM, first compound 0.00316 µM): 98.8%
viability, T/C (second compound 1 µM, first compound 0.01 µM): 106%
viability, T/C [14]: 100%
viability, T/C [15]: 44.1%
viability, T/C [16]: 9.5%
viability, T/C [17]: 7.1%
viability, T/C (second compound 3.16 µM, first compound 0.00316 µM): 97.7%
viability, T/C (second compound 3.16 µM, first compound 0.01 µM): 104%
viability, T/C [18]: 92.6%
viability, T/C [19]: 35.9%
viability, T/C [20]: 9.1%
viability, T/C [21]: 7.15%
viability, T/C (second compound 10 µM, first compound 0.00316 µM): 77%
viability, T/C (second compound 10 µM, first compound 0.01 µM): 91.9%
viability, T/C [22]: 74.3%
viability, T/C [23]: 33.7%
viability, T/C [24]: 10.4%
viability, T/C [25]: 7.02%

Nc1ncn(C2CC(O)C(CO)S2)c(=O)n1 (centres undefined) + Cc1cncc(-c2nc(NCCc3c[nH]c4ccccc34)c3ncn(C(C)C)c3n2)c1
IC50 [1]: > 300 nM
IC50 [2]: > 300 nM
IC50 [3]: > 300 nM
IC50 [4]: > 300 nM
IC50 [5]: > 300 nM
viability, T/C (second compound 0.1 µM, first compound 0.000949 µM): 102%
viability, T/C (second compound 0.1 µM, first compound 0.003 µM): 91.9%
viability, T/C (second compound 0.1 µM, first compound 0.00949 µM): 95.1%
viability, T/C (second compound 0.1 µM, first compound 0.03 µM): 129%
viability, T/C (second compound 0.1 µM, first compound 0.0949 µM): 148%
viability, T/C (second compound 0.1 µM, first compound 0.3 µM): 104%
viability, T/C (second compound 0.316 µM, first compound 0.000949 µM): 89.5%
viability, T/C (second compound 0.316 µM, first compound 0.003 µM): 89.4%
viability, T/C (second compound 0.316 µM, first compound 0.00949 µM): 104%
viability, T/C (second compound 0.316 µM, first compound 0.03 µM): 109%
viability, T/C (second compound 0.316 µM, first compound 0.0949 µM): 140%
viability, T/C (second compound 0.316 µM, first compound 0.3 µM): 105%
viability, T/C (second compound 1 µM, first compound 0.000949 µM): 98.2%
viability, T/C (second compound 1 µM, first compound 0.003 µM): 107%
viability, T/C (second compound 1 µM, first compound 0.00949 µM): 107%
viability, T/C (second compound 1 µM, first compound 0.03 µM): 140%
viability, T/C (second compound 1 µM, first compound 0.0949 µM): 140%
viability, T/C (second compound 1 µM, first compound 0.3 µM): 115%
viability, T/C (second compound 3.16 µM, first compound 0.000949 µM): 92.2%
viability, T/C (second compound 3.16 µM, first compound 0.003 µM): 89.9%
viability, T/C (second compound 3.16 µM, first compound 0.00949 µM): 90%
viability, T/C (second compound 3.16 µM, first compound 0.03 µM): 106%
viability, T/C (second compound 3.16 µM, first compound 0.0949 µM): 121%
viability, T/C (second compound 3.16 µM, first compound 0.3 µM): 98.4%
viability, T/C (second compound 10 µM, first compound 0.000949 µM): 79.5%
viability, T/C (second compound 10 µM, first compound 0.003 µM): 80.2%
viability, T/C (second compound 10 µM, first compound 0.00949 µM): 71.8%
viability, T/C (second compound 10 µM, first compound 0.03 µM): 76.9%
viability, T/C (second compound 10 µM, first compound 0.0949 µM): 70.9%
viability, T/C (second compound 10 µM, first compound 0.3 µM): 63.3%

CC(C)c1c(-c2ccccc2)nc2c(C#N)c[nH]n2c1=O
viability, T/C (compound 0.0316 µM): 103% and 105% and 93.4%
viability, T/C (compound 0.1 µM): 88.8% and 101% and 94.2%
viability, T/C (compound 0.316 µM): 107% and 95.9% and 94.8%
viability, T/C (compound 1 µM): 103% and 113% and 97.7%
viability, T/C (compound 3.16 µM): 96.4% and 107% and 96.9%
viability, T/C (compound 10 µM): 92% and 105% and 91.7%
IC50 (curve of compound): > 10000 nM

CC1COCCN1c1cc(C2(S(C)(=N)=O)CC2)nc(-c2ccnc3[nH]ccc23)n1 (centres undefined) + Cc1ccccc1N=Nc1ccc(NC(=O)c2ccnn2C)c(C)c1
IC50 [1]: 2340 nM
IC50 [2]: 2350 nM
IC50 [3]: 2180 nM
IC50 [4]: 2200 nM
IC50 [5]: 2170 nM
viability, T/C [6]: 105%
viability, T/C [7]: 97.8%
viability, T/C [8]: 81.3%
viability, T/C [9]: 90.8%
viability, T/C [26]: 35.8%
viability, T/C [27]: 11.8%
viability, T/C [10]: 99.1%
viability, T/C [11]: 90.2%
viability, T/C [12]: 98.5%
viability, T/C [13]: 97%
viability, T/C [28]: 33.9%
viability, T/C [29]: 11.3%
viability, T/C [14]: 89.4%
viability, T/C [15]: 105%
viability, T/C [16]: 81.8%
viability, T/C [17]: 84.2%
viability, T/C [30]: 34%
viability, T/C [31]: 9.66%
viability, T/C [18]: 91.2%
viability, T/C [19]: 83.8%
viability, T/C [20]: 87.6%
viability, T/C [21]: 95.1%
viability, T/C [32]: 31.8%
viability, T/C [33]: 9.83%
viability, T/C [22]: 82.1%
viability, T/C [23]: 87.2%
viability, T/C [24]: 87.5%
viability, T/C [25]: 79.7%
viability, T/C [34]: 35.6%
viability, T/C [35]: 10.9%

CC1(C)CCC(CN2CCN(c3ccc(C(=O)NS(=O)(=O)c4ccc(NCC5CCOCC5)c([N+](=O)[O-])c4)c(Oc4cnc5[nH]ccc5c4)c3)CC2)=C(c2ccc(Cl)cc2)C1 + Cc1ccccc1N=Nc1ccc(NC(=O)c2ccnn2C)c(C)c1
IC50 [1]: 7460 nM
IC50 [2]: 6900 nM
IC50 [3]: 7320 nM
IC50 [4]: 6940 nM
IC50 [5]: 6270 nM
viability, T/C [6]: 95.1%
viability, T/C [7]: 98.9%
viability, T/C [8]: 115%
viability, T/C [9]: 110%
viability, T/C [26]: 103%
viability, T/C [27]: 31.8%
viability, T/C [10]: 94.1%
viability, T/C [11]: 108%
viability, T/C [12]: 96.4%
viability, T/C [13]: 100%
viability, T/C [28]: 87.9%
viability, T/C [29]: 31.7%
viability, T/C [14]: 103%
viability, T/C [15]: 99.3%
viability, T/C [16]: 110%
viability, T/C [17]: 98.2%
viability, T/C [30]: 110%
viability, T/C [31]: 29.8%
viability, T/C [18]: 91.3%
viability, T/C [19]: 91.8%
viability, T/C [20]: 100%
viability, T/C [21]: 94.3%
viability, T/C [32]: 91.2%
viability, T/C [33]: 30.9%
viability, T/C [22]: 88.7%
viability, T/C [23]: 82.5%
viability, T/C [24]: 95.3%
viability, T/C [25]: 92.5%
viability, T/C [34]: 85.7%
viability, T/C [35]: 25.5%

CC1COCCN1c1cc(C2(S(C)(=N)=O)CC2)nc(-c2ccnc3[nH]ccc23)n1 (centres undefined)
viability, T/C (compound 0.0316 µM): 102% and 98.7% and 97.3%
viability, T/C (compound 0.1 µM): 98% and 103% and 99%
viability, T/C (compound 0.316 µM): 99.5% and 92% and 73%
viability, T/C (compound 1 µM): 106% and 89.6% and 47.1%
viability, T/C (compound 3.16 µM): 67.5% and 37.4% and 6.44%
viability, T/C (compound 10 µM): 8.92% and 13.3% and 3.14%
IC50 (curve of compound): 4450 nM and 2390 nM and 779 nM

NS(=O)(=O)OCC1CC(n2ccc3c(NC4CCc5ccccc54)ncnc32)CC1O (centres undefined) + Cc1ccccc1N=Nc1ccc(NC(=O)c2ccnn2C)c(C)c1
IC50 [1]: 853 nM
IC50 [2]: 633 nM
IC50 [3]: 590 nM
IC50 [4]: 457 nM
IC50 [5]: 304 nM
viability, T/C [6]: 106%
viability, T/C [7]: 97.9%
viability, T/C [8]: 77.6%
viability, T/C [9]: 43.7%
viability, T/C [26]: 23.1%
viability, T/C [27]: 7.4%
viability, T/C [10]: 109%
viability, T/C [11]: 117%
viability, T/C [12]: 67.1%
viability, T/C [13]: 38%
viability, T/C [28]: 19.6%
viability, T/C [29]: 8.23%
viability, T/C [14]: 110%
viability, T/C [15]: 110%
viability, T/C [16]: 61.4%
viability, T/C [17]: 38.6%
viability, T/C [30]: 20.1%
viability, T/C [31]: 9.57%
viability, T/C [18]: 103%
viability, T/C [19]: 97.5%
viability, T/C [20]: 50.2%
viability, T/C [21]: 36.3%
viability, T/C [32]: 13.6%
viability, T/C [33]: 5.34%
viability, T/C [22]: 93.7%
viability, T/C [23]: 80%
viability, T/C [24]: 43.5%
viability, T/C [25]: 29.8%
viability, T/C [34]: 10.1%
viability, T/C [35]: 4.53%
